Laboratory results taken from patent publication US5710166A, “N-acyl beta amino acid derivatives useful as platelet aggregation inhibitors” (The Monsanto Company, priority 1995, dated 1998).

Test system: platelet aggregation (Dog PRP)
Experiment: In-Vitro Platelet Aggregation in PRP (ADP-induced, dog platelet-rich plasma)
Type: cell-based
Conditions: Canis lupus familiaris, ADP 50 um final concentration; for IC50: linear regression of dose response curve, read-out: IC50 (dosage at which 50% of platelet aggregation is inhibited)
Protocol: Healthy male or female dogs were fasted for 8 hours prior to drawing blood; then 30 ml whole blood was collected using a butterfly needle and 30 cc plastic syringe with 3 ml or 0.129M buffered sodium citrate (3.8%). The syringe was rotated carefully as blood was drawn to mix the citrate. Platelet-rich plasma (PRP) was prepared by centrifugation at 975 x g for 3.17 minutes at room temperature allowing the centrifuge to coast to a stop without braking. The PRP was removed from the blood with a plastic pipette and placed in a plastic capped, 50 mL Corning conical sterile centrifuge tube which was held at room temperature. Platelet poor plasma (PPP) was prepared by centrifuging the remaining blood at 2000 x g for 15 minutes at room temperature allowing the centrifuge to coast to a stop without braking. The PRP was adjusted with PPP to a count of 2-3×10^8 platelets per mL. 400 uL of the PRP preparation and 50 uL of the compounds solution to be tested or saline were preincubated for 1 minute at 37° C. in a […].). 50 uL of adenosine 5' diphosphate (ADP) (50 um final concentration) was added to the cuvettes and the aggregation was monitored for 1 minute. All compounds are tested in duplicate. Results are calculated as follows: Percent of control=[(maximal OD minus initial OD of compound) divided by (maximal OD minus initial OD of control saline)]×100. The % inhibition=100-(percent of control).
The compounds tested and their median inhibitory concentrations (IC50) are recorded in Table I. IC50 's (dosage at which 50% of platelet aggregation is inhibited) were calculated by linear regression of the dose response curve.

| Structure (SMILES) | IC50 | inhibition at 10 µM (compound at 10^-5 M, read-out: % Inh. (inhibition of platelet aggregation)) |
| --- | --- | --- |
| N=C(N)c1ccc(CNc2cccc(C(=O)NC(CC(=O)O)c3cccnc3)c2)cc1 (stereo not drawn) [Example 4, β-[[3-[4-(aminoiminomethyl)benzyl]aminobenzoyl]amino]-3-pyridinepropanoic acid] | 6.8 µM |  |
| N=C(N)c1ccc(CNc2cccc(C(=O)NCCC(=O)O)c2)cc1 [Example 2, β-[[3-[4-(aminoiminomethyl)benzyl]aminobenzoyl]amino]propanoic acid] |  | 28% |
| N=C(N)c1ccc(CNCCC(=O)NC(CC(=O)O)c2cccnc2)cc1 (stereo not drawn) [Example 6, β-[[3-[4-(aminoiminomethyl)benzyl]aminopropanoyl]amino]-3-pyridinepropanoic acid] | 0.8 µM |  |
